Source: patent publication US7906486B2, “Method of treating or preventing tissue deterioration, injury or damage due to disease of mucosa” (SciClone Pharmaceuticals, Inc., priority 2007, dated 2011)
Values joined by “and” are separate entries in the source; they are usually repeats but may differ in a detail not shown here. Equal entries are not always repeated.

Key:
[1] = test system: 5-FU-immune-suppressed animals; details: in vivo; cited from earlier work
[2] = test system: immunization with sheep red blood cells; details: in vivo; cited from earlier work
[3] = Weights and survival (Example 4, SCI-04); format: in vivo, Syrian Golden Hamsters; parameters: Animal weight: unit not given here; details: for Animal weight: Group 2 (SCV-07 10 μg/kg, day −1 to day 20), individual animals
Experimental: (§1) All animals were weighed daily and their survival recorded, in order to assess possible differences in animal weight among treatment groups as an indication for mucositis severity and/or possible toxicity resulting from the treatments.
There were no significant differences in weight changes between study groups. The mean daily percent weight change data was evaluated. The saline treated control hamsters gained an average of 46.5% of their starting weight during the study. Hamsters in the group receiving SCV-07 at 10 μg/kg on days −1 to 20 gained an average of 51.3% of their starting weight during the study. Hamsters in the group receiving SCV-07 at 100 μg/kg on days −1 to 20 gained an average of 46.7% of their starting weight during the study. Hamsters in the group receiving SCV-07 at 1 mg/kg from day −1 to day 20 gained an average of 48.8% of their starting weight during the study. The significance of these differences was evaluated by calculating the area-under-the-curve (AUC) for the weight gain of each animal, and then comparing the different treatment groups using a One-Way ANOVA test.

[4] = Weights and survival (Example 1, SCI-01); format: in vivo, Syrian Golden Hamsters
Experimental: as §1
The mean daily percent weight change data was evaluated. The saline (PBS) treated control hamsters gained an average of 70.4% of their starting weight during the study. Hamsters in the group receiving SCV-07 at 1 ug/kg on days −1 to 16 gained an average of 68.4% of their starting weight during the study. Hamsters in the group receiving SCV-07 at 10 ug/kg on days −1 to 16 gained an average of 70.3% of their starting weight during the study. Hamsters in the group receiving SCV-07 at 100 ug/kg on days −1 to 16 gained an average of 82.0% of their starting weight during the study. The significance of these differences was evaluated by calculating the area-under-the-curve (AUC) for the weight gain of each animal, and then comparing the different treatment groups using a One-Way ANOVA test.

thymocyte and lymphocyte = details: in vitro; cited from earlier work

For `N[C@H](CCC(=O)N[C@@H](Cc1c[nH]c2ccccc12)C(=O)O)C(=O)O` [SCV-07, γ-D-glutamyl-L-tryptophan], the “immunostimulatory effect on 5-FU-immune-suppressed animals” value [1] is listed as “strong immunostimulatory effect”, the “immunostimulatory effect in a model of immunization with sheep red blood cells” value [2] is listed as “strong immunostimulatory effect” and the “average weight gain, % of starting weight during the study” value (“average weight gain, %” for short) ([3]; 10 ug/kg on days -1 to 20) is listed as 51.3%. For the same molecule, the “average weight gain, %” value ([3]; 100 ug/kg on days -1 to 20) was 46.7%, the “average weight gain, %” value ([3]; 1 mg/kg from day -1 to day 20) was 48.8% and the Animal weight ([3]; day 0) was 77 (2×) and 102 and 84 and 80 and 94. The Animal weight ([3]; day 1) was 74 and 101 and 83 and 80 and 76 and 91, the Animal weight ([3]; day 2) was 78 and 104 and 89 and 86 and 77 and 94 and the Animal weight ([3]; day 3) was 82 and 111 and 93 and 88 and 79 and 98. The Animal weight ([3]; day 4) was 83 and 113 and 95 and 90 and 82 and 101, the Animal weight ([3]; day 5) was 86 and 112 and 98 and 93 and 83 and 103 and the Animal weight ([3]; day 6) was 88 and 114 and 101 and 96 and 84 and 106. The Animal weight ([3]; day 7) was 90 and 117 and 103 and 98 and 86 and 108 and 80, the Animal weight ([3]; day 8) was 92 and 121 and 106 and 101 and 88 and 109 and 83 and the Animal weight ([3]; day 9) was 94 and 122 and 106 and 102 and 91 and 108 and 83. For the same molecule, the Animal weight ([3]; day 10) was 96 and 125 and 112 and 105 and 90 and 109 and 85, the Animal weight ([3]; day 11) was 98 and 125 and 111 and 105 and 92 and 109 and the Animal weight ([3]; day 12) was 98 and 128 and 111 and 107 and 91 and 109. The Animal weight ([3]; day 13) was 98 and 128 and 112 and 108 (2×) and 90, the Animal weight ([3]; day 14) was 99 and 130 and 115 and 109 and 91 and 111 and the Animal weight ([3]; day −1) was 77 and 101 and 85 and 82 and 76 and 94. The “average weight gain, %” value ([4]; 1 ug/kg on days -1 to 16) was 68.4%, the “average weight gain, %” value ([4]; 10 ug/kg on days -1 to 16) was 70.3% and the “average weight gain, %” value ([4]; 100 ug/kg on days -1 to 16) was 82.0%. For the same molecule, the “Con-A-induced thymocyte and lymphocyte proliferation” value (thymocyte and lymphocyte) was “increases”.
